Laboratory results: US9822131B2, “Certain chemical entities, compositions and methods” (Intellikine LLC, priority 2008, dated 2017)

target: T1, PI3K δ (Homo sapiens, UniProt O00329); test: PI3K δ in vitro kinase inhibition assay; type: biochemical; conditions: not given
T1 construct: purchased Upstate
T1 sequence (O00329 whole entry): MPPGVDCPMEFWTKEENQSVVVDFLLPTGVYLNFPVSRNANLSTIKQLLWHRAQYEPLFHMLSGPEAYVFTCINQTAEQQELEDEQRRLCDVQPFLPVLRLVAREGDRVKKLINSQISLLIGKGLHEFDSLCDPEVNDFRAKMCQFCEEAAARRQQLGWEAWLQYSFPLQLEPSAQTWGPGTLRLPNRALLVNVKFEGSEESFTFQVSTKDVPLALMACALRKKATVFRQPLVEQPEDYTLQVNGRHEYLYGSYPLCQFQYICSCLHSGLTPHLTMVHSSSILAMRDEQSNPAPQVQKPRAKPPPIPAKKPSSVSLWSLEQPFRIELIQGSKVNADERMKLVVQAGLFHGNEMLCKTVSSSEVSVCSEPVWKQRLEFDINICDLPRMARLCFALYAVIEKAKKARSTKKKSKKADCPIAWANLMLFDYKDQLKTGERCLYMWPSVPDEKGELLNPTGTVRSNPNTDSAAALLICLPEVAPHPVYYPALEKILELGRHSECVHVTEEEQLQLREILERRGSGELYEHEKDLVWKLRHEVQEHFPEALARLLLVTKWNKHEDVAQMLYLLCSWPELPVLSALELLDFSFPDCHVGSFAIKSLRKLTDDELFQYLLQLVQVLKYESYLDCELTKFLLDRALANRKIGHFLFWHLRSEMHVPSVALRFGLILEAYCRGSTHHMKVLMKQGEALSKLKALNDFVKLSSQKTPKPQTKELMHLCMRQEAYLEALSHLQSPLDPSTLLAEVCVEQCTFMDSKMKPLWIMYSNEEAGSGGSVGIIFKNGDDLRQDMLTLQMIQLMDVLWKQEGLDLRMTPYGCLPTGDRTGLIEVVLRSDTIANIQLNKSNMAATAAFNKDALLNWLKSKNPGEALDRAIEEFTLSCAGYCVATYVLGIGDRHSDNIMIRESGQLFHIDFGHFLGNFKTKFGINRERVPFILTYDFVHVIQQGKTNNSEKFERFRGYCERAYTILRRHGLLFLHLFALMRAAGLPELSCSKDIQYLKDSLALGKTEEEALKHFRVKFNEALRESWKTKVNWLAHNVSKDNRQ
T1 sequence (P27986 whole entry partner): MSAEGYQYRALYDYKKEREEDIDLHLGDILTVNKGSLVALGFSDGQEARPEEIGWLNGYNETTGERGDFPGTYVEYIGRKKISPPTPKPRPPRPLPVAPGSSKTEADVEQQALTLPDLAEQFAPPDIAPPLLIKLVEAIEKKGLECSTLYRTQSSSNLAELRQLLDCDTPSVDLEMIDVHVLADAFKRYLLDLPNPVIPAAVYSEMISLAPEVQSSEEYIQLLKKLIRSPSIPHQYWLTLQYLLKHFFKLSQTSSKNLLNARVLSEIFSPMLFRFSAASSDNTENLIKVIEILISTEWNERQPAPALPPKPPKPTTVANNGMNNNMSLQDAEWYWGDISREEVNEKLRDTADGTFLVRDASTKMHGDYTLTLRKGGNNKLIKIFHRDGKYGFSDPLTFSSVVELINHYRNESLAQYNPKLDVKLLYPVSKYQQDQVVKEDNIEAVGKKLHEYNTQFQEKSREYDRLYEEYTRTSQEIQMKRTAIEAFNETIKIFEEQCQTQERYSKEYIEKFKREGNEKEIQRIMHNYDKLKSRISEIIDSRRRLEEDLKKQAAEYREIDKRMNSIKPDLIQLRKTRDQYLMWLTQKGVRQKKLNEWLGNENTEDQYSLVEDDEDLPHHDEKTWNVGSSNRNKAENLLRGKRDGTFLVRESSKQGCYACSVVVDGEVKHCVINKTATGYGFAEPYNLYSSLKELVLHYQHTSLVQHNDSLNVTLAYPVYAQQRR

SMILES | IC50 [nM]
Cc1ccccc1-n1c(Cn2nc(Br)c3c(N)ncnc32)nc2sc(C)c(C)c2c1=O [Compound 301] | < 100
Cc1cccnc1-n1c(Cn2nc(I)c3c(N)ncnc32)cc2cccc(C)c2c1=O [Compound 92] | < 10000

target: T2, PI3K γ (Homo sapiens, UniProt P48736); test: PI3K γ in vitro kinase inhibition assay; type: biochemical; conditions: not given
T2 construct: purchased Sigma
T2 sequence (P48736 whole entry): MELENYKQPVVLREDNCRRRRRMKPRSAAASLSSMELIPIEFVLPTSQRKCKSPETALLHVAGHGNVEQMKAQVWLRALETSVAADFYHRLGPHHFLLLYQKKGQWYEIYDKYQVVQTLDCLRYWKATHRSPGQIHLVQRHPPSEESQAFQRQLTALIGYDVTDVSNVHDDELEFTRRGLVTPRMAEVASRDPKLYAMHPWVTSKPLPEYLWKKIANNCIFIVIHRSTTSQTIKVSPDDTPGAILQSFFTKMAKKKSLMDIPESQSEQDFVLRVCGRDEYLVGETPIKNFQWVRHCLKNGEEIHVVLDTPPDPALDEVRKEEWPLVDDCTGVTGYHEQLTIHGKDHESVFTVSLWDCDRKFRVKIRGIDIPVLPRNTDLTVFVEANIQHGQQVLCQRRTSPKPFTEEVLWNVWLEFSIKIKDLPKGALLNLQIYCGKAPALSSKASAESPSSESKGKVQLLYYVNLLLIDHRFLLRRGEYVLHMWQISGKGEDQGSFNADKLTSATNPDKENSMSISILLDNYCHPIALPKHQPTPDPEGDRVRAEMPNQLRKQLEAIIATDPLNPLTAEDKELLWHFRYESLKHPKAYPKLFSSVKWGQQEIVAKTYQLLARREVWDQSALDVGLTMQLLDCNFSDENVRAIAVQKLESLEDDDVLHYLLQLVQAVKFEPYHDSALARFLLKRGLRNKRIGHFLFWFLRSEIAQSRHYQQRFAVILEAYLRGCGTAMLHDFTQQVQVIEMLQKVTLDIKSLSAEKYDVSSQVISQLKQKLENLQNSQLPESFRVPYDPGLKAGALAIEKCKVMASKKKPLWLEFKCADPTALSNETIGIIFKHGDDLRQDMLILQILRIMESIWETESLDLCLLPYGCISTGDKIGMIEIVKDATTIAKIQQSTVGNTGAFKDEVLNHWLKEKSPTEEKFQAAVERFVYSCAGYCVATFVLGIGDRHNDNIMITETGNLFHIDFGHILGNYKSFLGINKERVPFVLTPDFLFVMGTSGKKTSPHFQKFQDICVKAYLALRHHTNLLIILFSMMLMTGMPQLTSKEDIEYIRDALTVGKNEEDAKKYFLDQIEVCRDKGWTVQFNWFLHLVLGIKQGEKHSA

SMILES | IC50 [nM]
Cc1ccccc1-n1c(Cn2nc(Br)c3c(N)ncnc32)nc2sc(C)c(C)c2c1=O [Compound 301] | > 10000
Cc1cccnc1-n1c(Cn2nc(I)c3c(N)ncnc32)cc2cccc(C)c2c1=O [Compound 92] | < 10000

target: T3, PI3K α (Homo sapiens, UniProt P42336); test: PI3K α in vitro kinase inhibition assay; type: biochemical; conditions: not given
T3 construct: purchased Upstate
T3 sequence (P42336 whole entry): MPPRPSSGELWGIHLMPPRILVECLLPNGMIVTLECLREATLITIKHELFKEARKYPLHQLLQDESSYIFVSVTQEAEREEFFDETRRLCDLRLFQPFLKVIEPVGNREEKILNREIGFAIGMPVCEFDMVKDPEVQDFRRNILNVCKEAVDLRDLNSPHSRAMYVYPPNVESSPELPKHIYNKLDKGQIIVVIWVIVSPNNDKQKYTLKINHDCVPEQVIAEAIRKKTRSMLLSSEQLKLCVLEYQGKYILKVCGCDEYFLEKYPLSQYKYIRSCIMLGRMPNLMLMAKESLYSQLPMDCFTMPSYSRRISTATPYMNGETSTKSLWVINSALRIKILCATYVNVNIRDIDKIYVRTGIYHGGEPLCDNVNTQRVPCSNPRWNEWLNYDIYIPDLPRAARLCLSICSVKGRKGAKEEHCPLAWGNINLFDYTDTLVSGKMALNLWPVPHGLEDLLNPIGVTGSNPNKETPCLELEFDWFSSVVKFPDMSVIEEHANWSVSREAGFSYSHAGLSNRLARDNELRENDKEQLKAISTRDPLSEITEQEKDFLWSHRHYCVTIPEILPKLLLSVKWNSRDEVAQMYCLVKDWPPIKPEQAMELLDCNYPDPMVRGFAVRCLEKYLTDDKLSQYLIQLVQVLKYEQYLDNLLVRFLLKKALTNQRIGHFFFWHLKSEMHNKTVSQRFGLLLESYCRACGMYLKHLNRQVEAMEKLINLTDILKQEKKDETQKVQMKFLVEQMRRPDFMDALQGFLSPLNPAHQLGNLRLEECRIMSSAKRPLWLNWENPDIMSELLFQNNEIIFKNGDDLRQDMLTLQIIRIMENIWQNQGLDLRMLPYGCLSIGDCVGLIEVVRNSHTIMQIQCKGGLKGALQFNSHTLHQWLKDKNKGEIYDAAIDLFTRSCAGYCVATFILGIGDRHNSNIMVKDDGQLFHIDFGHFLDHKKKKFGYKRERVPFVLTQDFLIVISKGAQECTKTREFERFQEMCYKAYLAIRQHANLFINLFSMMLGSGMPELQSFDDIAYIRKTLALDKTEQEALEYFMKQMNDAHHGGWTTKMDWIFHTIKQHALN
T3 sequence (P27986 whole entry partner): as the sequence (P27986 whole entry partner) above

SMILES | IC50 [nM]
Cc1ccccc1-n1c(Cn2nc(Br)c3c(N)ncnc32)nc2sc(C)c(C)c2c1=O [Compound 301] | > 10000

target: T4, PI3K β (Homo sapiens, UniProt P42338); test: PI3K β in vitro kinase inhibition assay; type: biochemical; conditions: not given
T4 construct: purchased Upstate
T4 sequence (P42338 whole entry): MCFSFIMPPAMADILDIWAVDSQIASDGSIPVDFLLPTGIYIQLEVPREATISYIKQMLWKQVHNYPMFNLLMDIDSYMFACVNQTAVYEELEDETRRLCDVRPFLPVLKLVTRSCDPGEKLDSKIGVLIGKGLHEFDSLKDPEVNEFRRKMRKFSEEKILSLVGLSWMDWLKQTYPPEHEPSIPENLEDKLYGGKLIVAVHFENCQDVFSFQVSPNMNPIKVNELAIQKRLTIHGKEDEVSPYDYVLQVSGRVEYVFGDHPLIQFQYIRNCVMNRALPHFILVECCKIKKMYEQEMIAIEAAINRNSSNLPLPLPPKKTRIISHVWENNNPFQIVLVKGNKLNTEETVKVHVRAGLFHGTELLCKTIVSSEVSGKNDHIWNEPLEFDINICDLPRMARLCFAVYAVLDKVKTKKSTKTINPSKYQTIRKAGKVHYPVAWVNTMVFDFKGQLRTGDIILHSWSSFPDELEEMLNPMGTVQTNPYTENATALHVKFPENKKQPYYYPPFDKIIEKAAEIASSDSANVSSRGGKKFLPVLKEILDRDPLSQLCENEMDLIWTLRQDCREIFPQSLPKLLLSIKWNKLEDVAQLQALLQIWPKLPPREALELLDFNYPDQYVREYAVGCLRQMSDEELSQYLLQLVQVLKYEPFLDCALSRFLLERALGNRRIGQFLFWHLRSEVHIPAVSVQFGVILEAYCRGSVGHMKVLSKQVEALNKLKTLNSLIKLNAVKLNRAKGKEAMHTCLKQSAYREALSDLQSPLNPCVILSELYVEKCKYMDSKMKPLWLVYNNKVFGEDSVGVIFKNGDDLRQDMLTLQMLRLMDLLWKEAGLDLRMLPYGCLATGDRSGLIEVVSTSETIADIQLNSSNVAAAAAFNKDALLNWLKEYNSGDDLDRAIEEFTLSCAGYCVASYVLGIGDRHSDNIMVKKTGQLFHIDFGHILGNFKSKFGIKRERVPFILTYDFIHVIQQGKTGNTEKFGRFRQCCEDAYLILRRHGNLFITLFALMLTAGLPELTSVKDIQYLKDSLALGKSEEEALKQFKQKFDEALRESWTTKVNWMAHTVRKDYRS
T4 sequence (P27986 whole entry partner): as the sequence (P27986 whole entry partner) above

SMILES | IC50 [nM]
Cc1ccccc1-n1c(Cn2nc(Br)c3c(N)ncnc32)nc2sc(C)c(C)c2c1=O [Compound 301] | > 10000

tested on: Balb/c splenic B cells; test: B cell activation and proliferation assay (Alamar Blue); type: cell-based; conditions: Mus musculus, read-out: B cell proliferation EC50
Description: The assay is performed in a 96 well microtiter plate using Alamar Blue reduction. Balb/c splenic B cells are purified over a Ficoll-Paque™ PLUS gradient followed by magnetic cell separation using a MACS B cell Isolation Kit (Miletenyi). Cells are plated in 90 ul at 50,000 cells/well in B Cell Media (RPMI+10% FBS+Penn/Strep+50 uM bME+5 mM HEPES). A compound disclosed herein is diluted in B Cell Media and added in a 10 ul volume. Plates are incubated for 30 min at 37 C and 5% CO2 (0.2% DMSO final concentration). A 50 ul B cell stimulation cocktail is then added containing either 10 ug/ml LPS or 5 ug/ml F(ab′)2 Donkey anti-mouse IgM plus 2 ng/ml recombinant mouse IL4 in B Cell Media. […] A volume of 15 uL of Alamar Blue reagent is added to each well and plates are incubated for 5 hours at 37 C and 5% CO2. Alamar Blue fluoresce is read at 560Ex/590Em, and IC50 or EC50 values are calculated using GraphPad Prism 5.

SMILES | EC50 [nM]
COc1cc(-c2nn(Cc3cc4cccc(C)c4c(=O)n3-c3ccccc3C)c3ncnc(N)c23)ccc1Cl [Compound 21] | < 1000
CC(=O)Nc1nc2ccc(-c3nn(Cc4cc5cccc(C)c5c(=O)n4C(C)C)c4ncnc(N)c34)cc2s1 [Compound 154] | < 100
Cc1cccc2cc(Cn3nc(I)c4c(N)ncnc43)n(-c3ccccc3F)c(=O)c12 [Compound 2] | < 10000
COc1ccccc1-n1c(Cn2nc(-c3cccc(O)c3)c3c(N)ncnc32)cc2cccc(C)c2c1=O [Compound 74] | < 100
CC(=O)Nc1nc2ccc(-c3nn(Cc4cc5cccc(C)c5c(=O)n4-c4cccc(F)c4)c4ncnc(N)c34)cc2s1 [Compound 178] | < 100
Nc1ncnc2c1c(-c1cc(O)cc(F)c1)nn2Cc1cc2cccc(Cl)c2c(=O)n1C1CC1 [Compound 142] | < 100
Cc1cccc2cc(Cn3nc(-c4cc(O)cc(F)c4)c4c(N)ncnc43)n(-c3ccccc3F)c(=O)c12 [Compound 3] | < 100
Cc1ccccc1-n1c(Cn2nc(C#CC3CC3)c3c(N)ncnc32)cc2cccc(C)c2c1=O [Compound 14] | < 1000
Cc1ccccc1-n1c(Cn2nc(C#N)c3c(N)ncnc32)cc2cccc(C)c2c1=O [Compound 170] | < 100
Cc1ccccc1-n1c(Cn2nc(Cl)c3c(N)ncnc32)cc2cccc(C)c2c1=O [Compound 20] | < 1000
Cc1ccccc1-n1c(Cn2nc(/C=C/C(N)=O)c3c(N)ncnc32)cc2cccc(C)c2c1=O [Compound 174] | < 100
Cc1cccc2cc(Cn3nc(-c4ccc(O)c(F)c4)c4c(N)ncnc43)n(-c3ccccc3F)c(=O)c12 [Compound 29] | < 1000
Cc1ccccc1-n1c(Cn2nc(-c3cc(O)cc(F)c3)c3c(N)ncnc32)cc2cccc(F)c2c1=O [Compound 55] | < 100
Cc1cccc2cc(Cn3nc(I)c4c(N)ncnc43)n(C3CCC3)c(=O)c12 [Compound 105] | < 1000
Cc1cccc2cc(Cn3nc(C#CC4CC4)c4c(N)ncnc43)n(-c3ccccc3F)c(=O)c12 [Compound 4] | < 1000
CC(=O)Nc1nc2ccc(-c3nn(Cc4cc5cccc(F)c5c(=O)n4C(C)C)c4ncnc(N)c34)cc2s1 [Compound 158] | < 100
COc1cccc(-c2nn(Cc3cc4cccc(C)c4c(=O)n3-c3ccccc3C)c3ncnc(N)c23)c1 [Compound 106] | < 1000
Cc1cccc2cc(Cn3nc(-c4cc(O)cc(F)c4)c4c(N)ncnc43)n(-c3ccccc3)c(=O)c12 [Compound 147] | < 100
Cc1cccc2cc(Cn3nc(-c4cccc(O)c4)c4c(N)ncnc43)n(-c3ccccc3Cl)c(=O)c12 [Compound 96] | < 100
Cc1cccc2cc(Cn3nc(-c4cccc(O)c4)c4c(N)ncnc43)n(C3CCCCC3)c(=O)c12 [Compound 111] | < 1000
CC(C)n1c(Cn2nc(-c3cc(O)cc(F)c3)c3c(N)ncnc32)cc2ccccc2c1=O [Compound 136] | < 100
Cc1cccc2cc(Cn3nc(-c4ccc(O)cc4)c4c(N)ncnc43)n(-c3ccccc3F)c(=O)c12 [Compound 46] | < 1000
Cc1cccc2cc(Cn3nc(-c4ccc(Cl)c(O)c4)c4c(N)ncnc43)n(C3CCCC3)c(=O)c12 [Compound 71] | < 10000

SMILES | EC50 [nM]
COc1ccc(-c2nn(Cc3cc4cccc(C)c4c(=O)n3-c3ccccc3C)c3ncnc(N)c23)cc1OC [Compound 44] | < 100
Cc1cccc2cc(Cn3nc(-c4ccc(F)c(O)c4)c4c(N)ncnc43)n(-c3ccccc3F)c(=O)c12 [Compound 9] | < 1000
Cc1cccc2cc(Cn3nc(-c4cc(O)cc(F)c4)c4c(N)ncnc43)n(C(C)C)c(=O)c12 [Compound 66] | < 100
Cc1ccccc1-n1c(Cn2nc(-c3cccc(F)c3)c3c(N)ncnc32)cc2cccc(C)c2c1=O [Compound 41] | < 1000
Cc1cccc2cc(Cn3nc(-c4cccc(F)c4)c4c(N)ncnc43)n(-c3ccccc3F)c(=O)c12 [Compound 40] | < 10000
Cc1cccc2cc(Cn3cnc4c(N)ncnc43)n(-c3ccccc3F)c(=O)c12 [Compound 1] | < 10000
CC(C)n1c(Cn2nc(-c3cc(O)cc(F)c3)c3c(N)ncnc32)cc2cccc(F)c2c1=O [Compound 134] | < 100
CC(=O)Nc1nc2ccc(-c3nn(Cc4cc5cccc(C)c5c(=O)n4C)c4ncnc(N)c34)cc2s1 [Compound 153] | < 100
CNC(=O)Nc1nc2ccc(-c3nn(Cc4cc5cccc(C)c5c(=O)n4-c4ccccc4C)c4ncnc(N)c34)cc2s1 [Compound 148] | < 100
Cc1cccc2cc(Cn3nc(/C=C4/SC(=O)NC4=O)c4c(N)ncnc43)n(-c3ccccc3F)c(=O)c12 [Compound 171] | < 100
Cc1ccccc1-n1c(Cn2nc(-c3cnn(CCO)c3)c3c(N)ncnc32)cc2cccc(C)c2c1=O [Compound 163] | < 1000
Cc1cccc2cc(Cn3nc(-c4cc(O)cc(F)c4)c4c(N)ncnc43)n(C3CC3)c(=O)c12 [Compound 101] | < 100
Cc1ccccc1-n1c(Cn2nc(C#C[C@H](C)O)c3c(N)ncnc32)cc2cccc(C)c2c1=O [Compound 85] | < 1000
Cc1cccc2cc(Cn3nc(I)c4c(N)ncnc43)n(-c3ccccc3Cl)c(=O)c12 [Compound 76] | < 1000
Cc1ccccc1-n1c(Cn2nc(-c3ccc4nc(N)ccc4c3)c3c(N)ncnc32)cc2cccc(C)c2c1=O [Compound 149] | < 100
Cc1ccccc1-n1c(Cn2nc(-c3ccc(O)cc3)c3c(N)ncnc32)cc2cccc(C)c2c1=O [Compound 36] | < 1000
Cc1cccc2cc(Cn3nc(-c4cccc(O)c4)c4c(N)ncnc43)n(-c3ccccc3F)c(=O)c12 [Compound 10] | < 1000
Cc1cccc2cc(Cn3nc(C#C[C@@H](C)O)c4c(N)ncnc43)n(C(C)C)c(=O)c12 [Compound 61] | < 1000
Cc1ccccc1-n1c(Cn2nc(-c3cn[nH]c3)c3c(N)ncnc32)cc2cccc(C)c2c1=O [Compound 160] | < 100
Cc1cccc2cc(Cn3nc(-c4cc(O)cc(F)c4)c4c(N)ncnc43)n(-c3ccccc3Cl)c(=O)c12 [Compound 97] | < 100
Cc1cccc2cc(Cn3nc(-c4cc(O)cc(F)c4)c4c(N)ncnc43)n(C)c(=O)c12 [Compound 125] | < 100
Cc1ccccc1-n1c(Cn2nc(C#C[C@@H](C)O)c3c(N)ncnc32)cc2cccc(C)c2c1=O [Compound 37] | < 100
Cc1cccnc1-n1c(Cn2nc(Cl)c3c(N)ncnc32)cc2cccc(C)c2c1=O [Compound 18] | < 1000

SMILES | EC50 [nM]
Cc1cccc2cc(Cn3nc(-c4cccc(O)c4)c4c(N)ncnc43)n(C)c(=O)c12 [Compound 124] | < 1000
Cc1ccccc1-n1c(Cn2nc(-c3cc(O)cc(F)c3)c3c(N)nccc32)cc2cccc(C)c2c1=O [Compound 113] | < 100
Cc1cccc2cc(Cn3nc(I)c4c(N)ncnc43)n(C3CCCC3)c(=O)c12 [Compound 57] | < 10000
Cc1cccc2cc(Cn3nc(C#C[C@@H](C)O)c4c(N)ncnc43)n(-c3ccccc3C(C)C)c(=O)c12 [Compound 83] | < 100
Cc1cccc2cc(Cn3nc(C#C[C@@H](C)O)c4c(N)ncnc43)n(-c3ccccc3O)c(=O)c12 [Compound 91] | < 1000
Cc1cccc2cc(Cn3nc(-c4cccc(O)c4)c4c(N)ncnc43)n(-c3ccccc3OCCN3CCOCC3)c(=O)c12 [Compound 109] | < 100
Cc1cccc2cc(Cn3nc(-c4cc(O)cc(F)c4)c4c(N)ncnc43)n(C3CCCC3)c(=O)c12 [Compound 63] | < 100
Cc1ccccc1-n1c(Cn2nc(-c3ccc4cc[nH]c4c3)c3c(N)ncnc32)cc2cccc(C)c2c1=O [Compound 50] | < 1000
CCc1ccccc1-n1c(Cn2nc(-c3cc(O)cc(F)c3)c3c(N)ncnc32)cc2cccc(C)c2c1=O [Compound 89] | < 100
Cc1ccccc1-n1c(Cn2nc(-c3ccc(Cl)cc3)c3c(N)ncnc32)cc2cccc(C)c2c1=O [Compound 49] | < 10000
Cc1cccc2cc(Cn3nc(I)c4c(N)ncnc43)n(C3CCCCC3)c(=O)c12 [Compound 87] | < 10000
Cc1cccc2cc(Cn3nc(-c4cccc(O)c4)c4c(N)ncnc43)n(C3CCC3)c(=O)c12 [Compound 114] | < 1000
Nc1ncnc2c1c(I)nn2Cc1cc2cccc(Cl)c2c(=O)n1C1CC1 [Compound 139] | < 100
Cc1cccc2cc(Cn3nc(I)c4c(N)ncnc43)n(-c3ccccc3O)c(=O)c12 [Compound 79] | < 1000
Cc1ccccc1-n1c(Cn2nc(-c3ccc(Cl)c(O)c3)c3c(N)ncnc32)cc2cccc(C)c2c1=O [Compound 23] | < 100
Cc1cccc2cc(Cn3nc(-c4cc(O)cc(F)c4)c4c(N)ncnc43)n(-c3ccccc3O)c(=O)c12 [Compound 90] | < 100
Cc1cccc2cc(Cn3nc(-c4cccc(O)c4)c4c(N)ncnc43)n(C(C)C)c(=O)c12 [Compound 62] | < 100
Cc1ccccc1-n1c(Cn2nc(/C=C3/SC(=O)NC3=O)c3c(N)ncnc32)cc2cccc(C)c2c1=O [Compound 173] | < 100
Cc1ccccc1-n1c(Cn2nc(I)c3c(N)ncnc32)cc2ccccc2c1=O [Compound 31] | < 1000
Cc1ccccc1-n1c(Cn2nc(C#C[C@@H](C)O)c3c(N)ncnc32)cc2ccccc2c1=O [Compound 32] | < 1000
Cc1ccccc1-n1c(Cn2nc(I)c3c(N)ncnc32)cc2cccc(F)c2c1=O [Compound 42] | < 1000

same assay, conditions: Mus musculus, read-out: B cell proliferation EC50 (nM)

SMILES | EC50 [nM]
Cc1cccc2cc(Cn3nc(C#N)c4c(N)ncnc43)n(-c3ccccc3F)c(=O)c12 [Compound 169] | < 1000
